Experiments:
[1] = test system: normal epithelial kidney cells (Vero); test: MTT cytotoxicity assay on Vero; format: cell-based; conditions: 24 h, read-out: Inhibition of cell proliferation, IC50, Vero
Method: The monolayer cell culture was trypsinized and the cell count was adjusted to 5.0 × 10^5 cells/ml using respective media containing 10% FBS. To each well of the 96-well microtiter plate, 100 µL of the diluted cell suspension (50,000cells/well) was added. After 24 h, when a partial monolayer was formed, the supernatant was flicked off, the monolayer was then washed once again with the medium and 100 µL of different test concentrations of test drugs were added on to the partial monolayer in microtiter plates. The plates were then incubated at 37 °C for 24 h in 5% CO2 atmosphere. After incubation, the test solutions in the wells were discarded and 100 µL of MTT (5 mg/10 ml of MTT in PBS) was added to each well. The plates were then incubated for 4 h at 37 °C in 5% CO2 atmosphere. The supernatant was then removed and 100 µL of DMSO was added and the plates were gently shaken to solubilize the formed formazan. The absorbance was measured using a microtiter plate reader at a wavelength of 590 nm. The percentage growth inhibition was thus calculated using the following formula and the concentration of the test drug required to inhibit the cell growth by 50% (IC50) values is generated from the dose–response curves for each one of the cell lines (Meerloo et al. [2011]).
The test compounds were screened for their in vitro cytotoxicity by MTT assay against two cancer cell lines, namely MCF-7, HCT-116 and normal epithelial kidney cells (Vero). Doxorubicin was used as a reference standard.

[2] = test system: HCT 116 cells; test: Apoptotic DNA fragmentation study; format: cell-based, Human
Method: Cells were seeded at a concentration of 1 × 10^6 per 35 mm dish and incubated at 37 °C/5% CO2 for 24 h. The confluent cells grown after 24 h of incubation were treated with sample concentrations at 10 μg/ml, 20 μg/ml and control (without sample). After the treatment, cells were trypsinized and both the adherent as well as floating cells were collected by centrifugation at 2000 rpm for 5 min. The cell pellet was later suspended in 0.5 ml lysis buffer (pH 7.8) [Tris–HCl 10 mM, pH 8; EDTA 20 mM, pH 8.0; TritonX-100 0.2% and 4 M NaCl], vortexed vigorously and incubated at 50 °C for 5 min. To the lysate, 0.5 ml of phenol: chloroform: isoamylalcohol was added and mixed for about 2–3 min. Further, it was centrifuged at 10,000 rpm for 15 min at 4 °C.The upper aqueous layer was taken in another tube to which, twice the volume of cold 100% ethanol was added along with 3 M sodium acetate (Final concentration of sodium acetate 0.3 M). It was incubated for 5–10 min at room temperature. Further, centrifuged again at 10,000 rpm for 20 min. After removing the supernatant, the DNA pellet was washed in 70% ethanol and centrifuged at 5000 rpm for the next 10 min. The supernatant was removed, the DNA pellet was air dried and was finally dissolved in TE buffer (Tris–HCl 10 mM, pH 7.4, EDTA 1 mM, pH 8.0) and separated by 2% agarose gel electrophoresis at 100 V for 50 min.

[3] = test system: CDK2 gene expression in HCT 116 cell lines; test: Semi-quantitative RT-PCR gene expression of CDK2; format: cell-based, Human; conditions: for Relative gene expression of CDK2: control 1.00
Method: HCT-116 cells were trypsinized and added to 1 ml TRIzol and vortexed. Samples were then allowed to stand for 5 min at room temperature. 0.2 ml of chloroform per 1 ml of TRIzol was added. The tube was later stoppered and shaken vigorously for 15 s and was allowed to stand at room temperature for 5 min. The resulting mixture was then centrifuged at 10,000×rpm for 15 min at […]. The upper aqueous phase was transferred to another clean tube followed by the addition of 0.5 ml of isopropanol per 1 ml of TRIzol. The contents were mixed gently by inverting the sample 5 times and incubated at room temperature for 5 min. Further, the tubes were centrifuged at 10,000×rpm for the next 10 min at […]. Later, the supernatant was discarded and the RNA pellet was washed by adding 1 ml of 70% ethanol. Further, the contents were mixed gently by inverting the sample for few times. It was again centrifuged for 5 min at 14,000×rpm at […]. In the later step, the supernatant was discarded by inverting the tube on a clean tissue paper. Later, the pellet was dried by incubating in a […] for 5 min at 55 °C. The pellet was then resuspended in 25 µL of DEPC (Diethyl pyro carbonate) treated water.
A semi-quantitative reverse transcriptase polymerase chain reaction (RT-PCR) was carried out using Techno Prime system to determine the levels of β-actin and CDK-2 and CyclinA mRNA expression. The cDNA was synthesized from 2 µg of RNA using the Verso cDNA synthesis kit (Thermo Fischer Scientific) with oligo dT (deoxy thymine) primer according to the manufacturer’s instructions. The reaction volume was set to 20 μL and the cDNA synthesis was performed at 42 °C for 60 min followed by RT inactivation at 85 °C for 5 min (Murakami [1996]).
The PCR mixture (final volume of 20 µL) contains 1 µL of cDNA, 10 µL of Red Taq Master Mix 2× (Ampliqon) and 1 µM of each complementary primer specific for CDK2 and CyclinA and β-actin (internal control) sequence. The samples are denatured at 95 °C for 5 min and amplified using 35 cycles of 95 °C for 30 s then again at 55 °C for 30 s and 72 °C for 1 min for β-actin; the […] annealing was finally set to 56 °C followed by the final elongation at 72 °C for 10 min. […] Ten microliters of the final amplification product are run on a 2% ethidium-stained agarose gel and photographed. Quantification of the results could be accomplished by measuring the optical density of the bands, using the computerized imaging program Image J. The values were normalized to β-actin intensity levels (Bookout and Mangelsdorf [2003]).

Structure (SMILES): COc1ccc(/C=C2\Oc3c(c(OC)cc(OC)c3C3=CCN(C(C)C)CC3)C2=O)cc1OC [NISOA4]
- IC50 [1]: > 200 µM
- DNA fragmentation on agarose gel ([2]; 12.5 μM): smearing
- DNA fragmentation on agarose gel ([2]; 25 μM): fragmentation in the form of DNA laddering
- Band intensity of PCR amplicon of genes, CDK2 ([3]; 12.5 μM): 16,091.61
- Normalized (CDK2 to β-actin) ([3]; 12.5 μM): 0.63
- expression of CDK2 (in words) ([3]; 12.5 μM and 25 μM, HCT 116): clear dose-dependent decrease
- Relative gene expression of CDK2 ([3]; 12.5 μM): 0.59
- Band intensity of PCR amplicon of genes, CDK2 ([3]; 25 μM): 13,190.418
- Normalized (CDK2 to β-actin) ([3]; 25 μM): 0.52
- Relative gene expression of CDK2 ([3]; 25 μM): 0.49

— PMC9440176, “Novel benzylidene benzofuranone analogues as potential anticancer agents: design, synthesis and in vitro evaluation based on CDK2 inhibition assays” (3 Biotech, 2022)
